Assays:
Settings in all cases: 8-24 hr
[1] = system: truncated FKBP-TLR5 receptors; assay: NFκβ activity of Jurkat-NFκβ-GFP reporter cells with truncated FKBP-TLR5 receptor constructs; format: cell-based, human
Description: (§1) In each of the following examples, standard molecular cloning techniques were performed to assemble nucleic acid sequences encoding components of chimeric transmembrane receptor polypeptides onto plasmid backbones. Plasmids were transfected into HEK293T cells to create lentivirus. Lentivirus was transduced into all cell lines to create receptor engineered cells. Presence of the receptor was determined by a fluorescent reporter. Receptor engineered Jurkat cells or Jurkat-NFκβ-GFP and/or Jurkat-NFAT-GFP reporter cells were treated with activator for 8-24 hr. Receptor activity was measured by antibody staining or GFP expression via flow cytometry.
To determine where to truncate the TLR5 ECD such that the binding domain could be redirected to expand the soluble factor repertoire, the ECD was also methodically truncated at specific locations prior to fusing to FKBP. […] The graph of FIG. 3 plots the Nκβ activity for Jurkat-NFKκβ-GFP reporter cells engineered with or without truncated receptor constructs and treated with AP20187 activator for 8-24 hr. The graph of FIG. 4 plots the NFκβ activity for Jurkat-NFκβ-GFP reporter cells engineered with or without truncated receptor constructs and treated with Flagellin activator for 8-24 hr. […]

[2] = system: nanobody-fused chimeric transmembrane receptor polypeptide (Nb-TLR5); assay: NFκβ activity of Nb-TLR5 receptor-engineered Jurkat-NFκβ-GFP reporter cells; format: cell-based
Description: as §1
The receptor ECD was also expanded beyond endogenous proteins to engineered nanobodies that bind to small molecules. For example, FIG. 8 presents results for a nanobody-fused chimeric transmembrane receptor polypeptide (Nb-TLR5) engineered and activated by treatment with the asymmetric monomeric small molecule, caffeine. The graph of FIG. 8 plots NFκβ activity for receptor-engineered Jurkat-NFκβ-GFP reporter cells treated with or without caffeine activator for 8-24 hr.

[3] = system: FKBP-TLR5/FRB-TLR5 model receptor system; assay: NFκβ activity of FKBP-TLR5/FRB-TLR5 heterodimerization system in Jurkat-NFκβ-GFP reporter cells; format: cell-based, human
Description: as §1
The receptor was further modified to activate upon heterodimerization (A/B system) by dimerizing two different receptor constructs. FKBP heterodimerizes with FKBP-rapamycin-binding (FRB, protein fragment of human mTOR) with the addition of AP21967 (protein-protein interaction inducing macrocyclic small molecule), and an FKBP-TLR5/FRB-TLR5 model receptor system was engineered and activated with AP21967.

Chain of truncated FKBP-TLR5 receptors (P62942 2-108 F37V limits assumed): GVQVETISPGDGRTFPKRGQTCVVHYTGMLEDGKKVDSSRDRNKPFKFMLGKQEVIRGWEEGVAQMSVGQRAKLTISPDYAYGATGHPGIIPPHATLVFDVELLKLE

Compound: flagellin
- receptor activation, NFκβ activity (FIGS. 3-5) [1]: not

Compound: Cn1c(=O)c2c(ncn2C)n(C)c1=O [caffeine]
- NFκβ activity (FIG. 8) [2]: activated

Compound: CO[C@H]1[C@@H](O)[C@H](C)C[C@H](C)/C=C/C=C/C=C(\C)[C@@H](c2c[nH]c3c(C)cccc23)C[C@@H]2CC[C@@H](C)[C@@](O)(O2)C(=O)C(=O)N2CCCC[C@H]2C(=O)O[C@H]([C@H](C)C[C@@H]2CC[C@@H](O)[C@H](OC)C2)C[C@H](O)[C@H](C)/C=C(\C)[C@H]1O [AP21967]
- NFκβ activity (FIG. 7) [3]: intramembrane signal pathway activation

Reference: patent US20240009234A1, “SYNTHETIC OLIGOMERIZATION SYSTEMS FOR CELL ENGINEERING AND THERAPY” (The Board of Trustees of the Leland Stanford Junior …, priority 2020, published 2024)
